Entries after “also recorded” stand apart in the source; their conditions may differ.
What was measured:
HIV [1] = settings: cited from earlier work
[2] = tested on: HIV-IIIB (HIV-1) replication in H9 cells; assay: HIV replication (RT activity) in acute infection of H9 cells; format: cell-based; settings: for effect on HIV replication: non-cytotoxic doses of topo II inhibitors added during HIV infection
Procedure: HIV-Acute Infection of H9 Cells by HIV and Drug Treatment: One ml of culture supernatant of H9/HIV-IIIB cells (10^6 /ml) was used after centrifugation (200xg, 20 min) and filtration (0.45 μm) for infecting 10^5 H9 cells in the presence or absence of different levels of CPT, m-AMSA or VP-16. Control cells received equivalent volumes of DMSO. The cells were incubated for 1 h at 37° C., pelleted, washed and resuspended in fresh media. […] (1981) J. Virol. 38: 239-48.
CPT Inhibition of HIV Replication Following Acute Infection of H9 Cells with HIV-IIIB. In order to determine appropriate concentrations of CPT which would permit cell viability and growth while inhibiting viral infection or replication, H9 cells were infected with HIV-IIIB as described above in the absence or presence of different CPT doses. The cells were incubated for 1 h at 37° C., pelleted, washed and resuspended in fresh media. Reverse transcriptase (RT) activity in the culture media was measured seven days after infection.
Since CPT is an anticancer drug and a known topo I inhibitor, its effects on HIV replication were compared to those of other anticancer drugs which are known to inhibit the related topoisomerase II enzyme.

H9 cells = assay: Cell number, viability (trypan blue dye exclusion) and growth of H9 cells; format: cell-based
HIV [3] = settings: chronically infected cell lines; cited from earlier work
[4] = 0.5 μM VP16, day 6 post-infect.
[5] = 0.5 μM VP16, day 7 post-infect.
[6] = 0.5 μM VP16, day 8 post-infect.
[7] = 0.5 μM VP16, day 9 post-infect.
[8] = 1.5 μM VP16, day 6 post-infect.
[9] = 1.5 μM VP16, day 7 post-infect.
[10] = 1.5 μM VP16, day 8 post-infect.
[11] = 1.5 μM VP16, day 9 post-infect.
[12] = 0.4 μM m-Amsa, day 6 post-infect.
[13] = 0.4 μM m-Amsa, day 7 post-infect.
[14] = 0.4 μM m-Amsa, day 8 post-infect.
[15] = 0.4 μM m-Amsa, day 9 post-infect.
[16] = 1 μM m-Amsa, day 6 post-infect.
[17] = 1 μM m-Amsa, day 7 post-infect.
[18] = 1 μM m-Amsa, day 8 post-infect.
[19] = 1 μM m-Amsa, day 9 post-infect.

Cc1cn(C2CC(N=[N+]=[N-])C(CO)O2)c(=O)[nH]c1=O (stereo not shown) [AZT]
block of HIV infection at cell surface or at the level of reverse transcriptase (HIV [1]): known to block HIV infection

COc1cc(C2c3cc4c(cc3C(OC3OC5COC(C)OC5C(O)C3O)C3COC(=O)C23)OCO4)cc(OC)c1O (stereo not shown) [VP-16]
RT/Cell [2, 4]: 26283 cpm/10^5 cells
RT/Cell [2, 5]: 26143 cpm/10^5 cells
RT/Cell [2, 6]: 29158 cpm/10^5 cells
RT/Cell [2, 7]: 25183 cpm/10^5 cells
RT/Cell [2, 8]: 32242 cpm/10^5 cells
RT/Cell [2, 9]: 33626 cpm/10^5 cells
RT/Cell [2, 10]: 30675 cpm/10^5 cells
RT/Cell [2, 11]: 29194 cpm/10^5 cells
effect on HIV replication [2]: No effect on HIV replication was observed; also recorded: do not have any significant effect on HIV replication
No. Cells (H9 cells; [4]): 1 × 10^6
No. Cells (H9 cells; [5]): 1.6 × 10^6
No. Cells (H9 cells; [6]): 2.4 × 10^6
No. Cells (H9 cells; [7]): 3 × 10^6
No. Cells (H9 cells; [8]): 1 × 10^6
No. Cells (H9 cells; [9]): 2 × 10^6
No. Cells (H9 cells; [10]): 2.4 × 10^6
No. Cells (H9 cells; [11]): 4 × 10^6

COc1cc(NS(C)(=O)=O)ccc1Nc1c2ccccc2nc2ccccc12 [m-AMSA]
RT/Cell [2, 12]: 36070 cpm/10^5 cells
RT/Cell [2, 13]: 25372 cpm/10^5 cells
RT/Cell [2, 14]: 38594 cpm/10^5 cells
RT/Cell [2, 15]: 37556 cpm/10^5 cells
RT/Cell [2, 16]: 32674 cpm/10^5 cells
RT/Cell [2, 17]: 40057 cpm/10^5 cells
RT/Cell [2, 18]: 45558 cpm/10^5 cells
RT/Cell [2, 19]: 36442 cpm/10^5 cells
effect on HIV replication [2]: do not have any significant effect on HIV replication
effect on HIV replication ([2]; listed as m-Amsa): No effect on HIV replication was observed
No. Cells (H9 cells; [12]): 4 × 10^5
No. Cells (H9 cells; [13]): 9 × 10^5
No. Cells (H9 cells; [14]): 1.3 × 10^6
No. Cells (H9 cells; [15]): 2 × 10^6
No. Cells (H9 cells; [16]): 4 × 10^5
No. Cells (H9 cells; [17]): 7.5 × 10^5
No. Cells (H9 cells; [18]): 1.1 × 10^6
No. Cells (H9 cells; [19]): 2 × 10^6

interferon α
suppression of HIV expression (HIV [3]): reported to suppress HIV expression in chronically infected cell lines
